# Where two headings read alike, the source gives them in different places.
# How the values were obtained:
# [1] = Example 2, second clinical study: pharmacokinetics, bioavailability, food and rabeprazole effect; format: in vivo, human; conditions: for bioavailability: human, in vivo, po, 20 mg, 20 mg film-coated tablet, fasted, vs IV infusion
# Method: (§1) The study comprises a screening period of maximum 28 days, and five periods during which subjects will participate from Day −1 of Period 1 to 72 hours after the AZD5055 dose in Period 5.
# (§2) Period 1: On Day 1, the subjects will receive either 5 mg AZD5055 as a 20-minute IV infusion (Treatment A) in an overnight fasted state or AZD5055 20 mg as oral suspension (Treatment B) in an overnight fasted state.
# (§3) Period 2: On Day 1 (Study Day 4), the subjects will receive 20 mg AZD5055 film-coated tablet (Treatment C) in an overnight fasted state.
# (§4) Period 3: On Day 1 (Study Day 8) the subjects will receive a standardized high-fat breakfast 30 minutes before 20 mg AZD5055 administered as film-coated tablet (Treatment D).
# (§5) Period 4: On Study Day 10, three days prior to Day 1, 20 mg rabeprazole will be administered twice daily. On Day 1 (Study Day 13), 20 mg AZD5055 film-coated tablet will be administered together with rabeprazole and rabeprazole dosing will continue twice daily (Treatment E).
# (§6) Period 5: On Day 1 (Study Day 17) the participants will receive a low-fat breakfast 30 minutes before 20 mg AZD5055 film-coated tablet administered together with 20 mg rabeprazole.
# (§7) Rabeprazole will continue twice daily, the last dose is on the evening of Study Day 18 (Treatment F).
# There will be a minimum washout of 3 days between the AZD5055 dose administration in Period 1 and Period 2 and a minimum washout of 4 days between AZD5055 doses administrations for subsequent study periods. Repeated PK (pharmacokinetic) sampling will be performed pre-dose to 48 hours after dosing of AZD5055 of each period. Subjects will be discharged on Study Day 20 (Day 4 of Period 5), after all the samples have been collected and all the assessments have been performed.
# Rabeprazole is administered as oral doses of 20 mg BID in the morning and evening. Pre-treatment with rabeprazole for 3 days is required to reach the PD (pharmacodynamic) steady state of pH elevation prior to administration of AZD5055.
# A high-fat, high-calorie breakfast constitutes the following: 2 eggs fried in butter; 2 strips of bacon; 2 slices of toast with butter; 112 g/4 oz of hash-brown potatoes; 240 mL/8 oz of whole milk.
# A low-fat, low-calorie breakfast constitutes the following: 1 boiled egg; 1 packet flavoured instant oatmeal made with water; 240 mL/8 oz milk (1% fat).
# Pharmacokinetic Parameters—Pharmacokinetic parameters of AZD5055 included, but were not limited to, Cmax, AUCinf, and AUClast.
# Approximately 18 healthy participants were enrolled to ensure that at least 15 participants completed the 5-period study. It was expected that the proposed sample size would give adequate information on the effect of formulation and concomitant treatment on the exposure of AZD5055, while exposing as few participants as possible to study procedures. Interpretation of the results were based on the estimated geometric mean ratio (GMR) and the associated 90% confidence interval (CI) between the combination of test and reference for AUC and Cmax.
# Plasma concentrations were listed for each participant at each actual sampling time and summarized by treatment and nominal sampling time, using the same descriptive statistics as for the PK parameters. Graphical presentations included individual and geometric mean time-concentration curves (actual sampling time for individual curves and nominal sampling time for mean curves) on linear and semi-logarithmic scale. Pharmacokinetic variables and diagnostics of the PK analysis were listed, and PK variables were summarized by treatment using descriptive statistics (n, geometric mean, geometric coefficient of variation [gCV; %], arithmetic mean, arithmetic standard deviation [SD], minimum [min], median, and maximum [max]) for all variables except tmax, which were summarized using n, min, median, and max. […]
# healthy participants = test: Example 2: safety in healthy participants; format: in vivo, human
# Method: as §1, §2, §3, §4, §5, §6, §7
# Safety Variables—Safety endpoints included adverse events (AEs), clinical laboratory assessments (hematology, clinical chemistry, urinalysis, and urinary albumin:creatinine ratios), vital signs and peripheral oxygen saturation (SpO2), standard 12-lead electrocardiogram, (ECG), telemetry, and physical examinations.
# All safety data (scheduled and unscheduled) were presented in the data listings. Continuous variables were summarized using descriptive statistics (n, mean, SD, min, median, max) by treatment. Categorical variables were summarized in frequency tables (frequency and proportion) by treatment/dose group. The analysis of the safety variables was based on the safety analysis set.
# [2] = system: bleomycin-mediated fibrosis in the lungs of rats; conditions: cited from earlier work
# [3] = 20 mg film-coated tablet vs oral suspension
# [4] = tablet + rabeprazole fasted vs AZD5055 fasted alone
# [5] = tablet + rabeprazole fed vs AZD5055 fasted alone
# [6] = tablet with rabeprazole, fed vs fasted
compound,measurement,setting,value
"Cc1cc(-c2nccc3c2ccn3CC(=O)Nc2ccc(-c3cnccn3)cn2)ccn1 [AZD5055, 2-[4-(2-methyl-4-pyridyl)pyrrolo[3,2-c]pyridin-1-yl]-N-(5-pyrazin-2-yl-2-pyridyl)acetamide]","reduction in Cmax, tablet vs oral suspension",[1]; [3],approximately 35%
same,"total systemic exposure (AUCinf and AUClast), tablet vs oral suspension",[1]; [3],comparable
same,Cmax relative to IV dose,"[1]; film-coated tablet, percent of the IV dose",approximately 21%
same,bioavailability,[1]; read-out: absolute bioavailability based on AUCinf,~66%
same,bioavailability,[1]; read-out: absolute bioavailability based on AUClast,~64%
same,"change in total systemic exposure (AUCinf and AUClast) with rabeprazole, fasted",[1]; [4],no change in total systemic exposure
same,"reduction in Cmax with rabeprazole, fasted",[1]; [4],32%
same,"change in total systemic exposure (AUCinf and AUClast) with rabeprazole, fed",[1]; [5],no change in total systemic exposure
same,"reduction in Cmax with rabeprazole, fed",[1]; [5],20%
same,food effect on total systemic exposure with rabeprazole,[1]; [6],food did not impact total systemic exposure
same,increase in Cmax by food with rabeprazole,[1]; [6],approximately 17%
same,"participants with SAE (transaminases increased), possibly related","healthy participants; Period 3 (tablet, high-fat fed)",One
same,"AEs leading to discontinuation, events",healthy participants; after dosing in Period 3,2 events
same,participants with AE leading to discontinuation,"healthy participants; after dosing in Period 3, transaminases increased and non-cardiac chest pain",Two
same,participants with at least 1 AE of Grade 1 intensity,healthy participants; in total,8 participants
same,participants with at least 1 AE of Grade 2 intensity,healthy participants; in total,4 participants
same,AEs Grade 3 or higher,healthy participants; in vivo,No AEs Grade 3 or higher
same,deaths,healthy participants; in vivo,no deaths
same,"laboratory parameters, vital signs, ECGs, physical examination",healthy participants; in vivo,No clinically relevant trends
same,"AEs possibly related to AZD5055, events",healthy participants; overall,9 events
same,"any AE, events",healthy participants; overall,20 events
same,participants with any AE,healthy participants; overall,11 participants
same,participants with any AE possibly related to AZD5055,healthy participants; overall,Five
same,tolerability,healthy participants; single oral and IV doses,generally well tolerated
same,pulmonary fibrosis,[2]; rat bleomycin in vivo study (Bunyard 2019),reduced pulmonary fibrosis
same,bleomycin-mediated fibrosis in the lungs,"[2]; rats, preliminary studies (Bunyard 2019)",reduces bleomycin-mediated fibrosis in the lungs of rats

# — US20260345593A1, “ORAL FORMULATION OF N-PYRIDINYL ACETAMIDE DERIVATIVE FOR TREATING INTERSTITIAL LUNG DISEASE” (AstraZeneca AB, priority 2022, published 2026)
